US4271161A, “Indane-acetic acid aminoesters, their preparation and their use in therapy” (Hexachimie, priority 1978, dated 1981)

Legend:
mice = assay: toxicity: mortality after intraperitoneal administration in mice; assay type: in vivo
Description: In mice, no mortality was observed after intraperitoneal administration up to doses of: […]

[1] = system: pain reactions (abdominal writhing) induced by phenylbenzoquinone; assay: phenylbenzoquinone-induced writhing in mice (analgesic action); assay type: in vivo, male mice (SPF, strain OF1); conditions: for percentage inhibition of pain reactions (abdominal writhing): phenylbenzoquinone i.p. after one hour; for ED50: Mus musculus, po, inhibition of phenylbenzoquinone writhing
Description: The products being tested are administered orally (p.o.) to batches of 12 male mice (SPF, strain OF1), weighing 19-20 g. After one hour, 0.3 ml/mouse of a 0.02% strength solution of phenylbenzoquinone is injected intraperitoneally and the number of pain reactions (abdominal writhing) is counted from the 5th to the 10th minute after the latter treatment. The table below gives the percentage inhibition of these reactions.

Compound	dose up to which no mortality was observed (mice)	percentage inhibition of pain reactions (abdominal writhing) ([1]; 1 mg.kg^-1 p.o.)	percentage inhibition of pain reactions (abdominal writhing) ([1]; 2 mg.kg^-1 p.o.)	percentage inhibition of pain reactions (abdominal writhing) ([1]; 4 mg.kg^-1 p.o.)	percentage inhibition of pain reactions (abdominal writhing) ([1]; 8 mg.kg^-1 p.o.)	percentage inhibition of pain reactions (abdominal writhing) ([1]; 16 mg.kg^-1 p.o.)	percentage inhibition of pain reactions (abdominal writhing) ([1]; 32 mg.kg^-1 p.o.)	ED50 [1]	percentage inhibition of pain reactions (abdominal writhing) ([1]; 64 mg.kg^-1 p.o.)	percentage inhibition of pain reactions (abdominal writhing) ([1]; 128 mg.kg^-1 p.o.)
CCC1Cc2ccc(C(C)C(=O)OCCN3CCN(c4cccc(C(F)(F)F)c4)CC3)cc2C1 (stereo not drawn) [2 or 5]	512 mg/kg	22%	47%	59%	64%	65%	82%	4 mg/kg	–	–
CC(C(=O)OCCN1CCN(c2cccc(C(F)(F)F)c2)CC1)c1ccc2c(c1)CC(C(C)C)C2 (stereo not drawn) [4 or 6]	256 mg/kg	–	–	–	23%	40%	67%	25 mg/kg	75%	75%
